Experimental data reported in US20230132088A1, “DETECTION OF GENE POLYMORPHISMS” (The Board of Trustees of the Leland Stanford Junior …, priority 2020, published 2023).

Test: Population pharmacokinetic analysis of INH clearance in tuberculosis patients, by predicted NAT2 acetylator type
Settings: human, plasma, INH clearance rate (median), 48 pulmonary TB patients

NNC(=O)c1ccncc1 [INH, isoniazid]
clearance (predicted fast (rapid) acetylators): 778 mL/min
clearance (predicted intermediate acetylators): 683 mL/min
clearance (predicted slow acetylators, standardized weight-based dosing): 322 mL/min
